Measured values as given in the kinase profiling compilation of Christmann-Franck et al. (2016).

Tests used:
Experiment in all cases: KINOMEscan competition binding
Details in all cases: compound 10.0 µM
[1] = test system: ABL1 (human), P00519 [H396P]
[2] = test system: FLT3 (human), P36888 [R834Q]
[3] = test system: PIK3CA (human), P42336 [H1047L]
HIPK4 (human) = HIPK4 (human) (UniProt Q8NE63)
SBK1 (human) = SBK1 (human) (UniProt Q52WX2)
YSK4 (human) = YSK4 (human) (UniProt Q56UN5)
VRK2 (human) = VRK2 (human) (UniProt Q86Y07)
Chain of VRK2 (human) (Q86Y07 whole entry, looked up): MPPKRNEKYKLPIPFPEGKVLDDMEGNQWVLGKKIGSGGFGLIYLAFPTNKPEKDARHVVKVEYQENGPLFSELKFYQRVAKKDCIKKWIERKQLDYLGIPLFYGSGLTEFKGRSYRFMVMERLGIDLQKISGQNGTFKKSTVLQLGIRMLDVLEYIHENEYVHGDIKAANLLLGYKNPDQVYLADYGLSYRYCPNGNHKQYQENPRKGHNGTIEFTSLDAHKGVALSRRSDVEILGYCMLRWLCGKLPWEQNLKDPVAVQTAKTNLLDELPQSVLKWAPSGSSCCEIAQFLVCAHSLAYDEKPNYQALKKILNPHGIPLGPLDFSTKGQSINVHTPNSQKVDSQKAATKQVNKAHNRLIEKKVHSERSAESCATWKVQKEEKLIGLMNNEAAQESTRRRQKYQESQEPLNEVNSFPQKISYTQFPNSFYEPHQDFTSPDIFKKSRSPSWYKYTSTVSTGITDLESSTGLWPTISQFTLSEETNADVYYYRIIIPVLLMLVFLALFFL

[4] = test system: PIK3CA (human), P42336 [Q546K]
CDKL3 (human) = CDKL3 (human) (UniProt Q8IVW4)
Chain of CDKL3 (human) (Q8IVW4 whole entry, looked up): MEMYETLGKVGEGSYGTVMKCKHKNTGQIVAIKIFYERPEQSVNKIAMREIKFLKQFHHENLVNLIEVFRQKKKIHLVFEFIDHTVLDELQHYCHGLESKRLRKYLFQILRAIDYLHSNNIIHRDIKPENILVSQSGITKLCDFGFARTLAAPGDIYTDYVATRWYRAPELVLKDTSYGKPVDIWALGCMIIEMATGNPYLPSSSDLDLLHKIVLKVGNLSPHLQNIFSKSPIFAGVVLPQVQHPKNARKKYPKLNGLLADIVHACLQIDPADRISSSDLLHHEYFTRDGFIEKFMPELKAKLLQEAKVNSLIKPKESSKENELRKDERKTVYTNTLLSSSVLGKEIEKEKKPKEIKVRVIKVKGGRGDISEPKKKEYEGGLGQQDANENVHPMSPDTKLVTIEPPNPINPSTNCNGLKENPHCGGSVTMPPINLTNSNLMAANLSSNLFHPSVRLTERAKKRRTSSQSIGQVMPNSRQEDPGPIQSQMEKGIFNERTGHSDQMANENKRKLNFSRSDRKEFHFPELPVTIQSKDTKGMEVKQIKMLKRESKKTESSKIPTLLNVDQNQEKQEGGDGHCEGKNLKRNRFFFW

MAK (human) = MAK (human) (UniProt P20794)
Chain of MAK (human) (P20794 whole entry, looked up): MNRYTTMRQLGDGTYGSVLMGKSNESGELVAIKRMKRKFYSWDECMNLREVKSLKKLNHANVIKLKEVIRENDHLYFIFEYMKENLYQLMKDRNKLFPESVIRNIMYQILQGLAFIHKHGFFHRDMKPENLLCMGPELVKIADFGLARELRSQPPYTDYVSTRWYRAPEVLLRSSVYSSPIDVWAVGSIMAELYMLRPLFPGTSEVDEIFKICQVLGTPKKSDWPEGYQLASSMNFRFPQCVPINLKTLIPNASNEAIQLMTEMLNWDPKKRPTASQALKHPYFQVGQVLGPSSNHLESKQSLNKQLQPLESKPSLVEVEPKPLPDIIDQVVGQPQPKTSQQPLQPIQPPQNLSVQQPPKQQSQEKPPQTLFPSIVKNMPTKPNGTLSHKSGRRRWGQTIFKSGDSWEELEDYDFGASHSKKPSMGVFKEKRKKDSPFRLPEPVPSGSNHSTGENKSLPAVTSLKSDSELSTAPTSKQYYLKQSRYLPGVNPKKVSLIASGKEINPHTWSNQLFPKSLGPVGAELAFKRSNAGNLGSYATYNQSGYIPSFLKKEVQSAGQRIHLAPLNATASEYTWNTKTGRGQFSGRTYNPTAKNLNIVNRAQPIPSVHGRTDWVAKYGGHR

CSNK1A1 (human) = CSNK1A1 (human) (UniProt P48729)
Chain of CSNK1A1 (human) (P48729 whole entry, looked up): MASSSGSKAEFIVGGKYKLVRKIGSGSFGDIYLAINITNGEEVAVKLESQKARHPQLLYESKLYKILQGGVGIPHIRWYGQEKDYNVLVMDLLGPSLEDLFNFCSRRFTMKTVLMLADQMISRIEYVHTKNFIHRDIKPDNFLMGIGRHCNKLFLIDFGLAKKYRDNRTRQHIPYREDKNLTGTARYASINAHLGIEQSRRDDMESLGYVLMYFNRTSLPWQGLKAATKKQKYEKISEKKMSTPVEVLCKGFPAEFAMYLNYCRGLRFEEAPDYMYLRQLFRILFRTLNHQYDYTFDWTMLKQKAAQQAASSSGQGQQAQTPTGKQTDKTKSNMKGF

DCLK2 (human) = DCLK2 (human) (UniProt Q8N568)
Chain of DCLK2 (human) (Q8N568 whole entry, looked up): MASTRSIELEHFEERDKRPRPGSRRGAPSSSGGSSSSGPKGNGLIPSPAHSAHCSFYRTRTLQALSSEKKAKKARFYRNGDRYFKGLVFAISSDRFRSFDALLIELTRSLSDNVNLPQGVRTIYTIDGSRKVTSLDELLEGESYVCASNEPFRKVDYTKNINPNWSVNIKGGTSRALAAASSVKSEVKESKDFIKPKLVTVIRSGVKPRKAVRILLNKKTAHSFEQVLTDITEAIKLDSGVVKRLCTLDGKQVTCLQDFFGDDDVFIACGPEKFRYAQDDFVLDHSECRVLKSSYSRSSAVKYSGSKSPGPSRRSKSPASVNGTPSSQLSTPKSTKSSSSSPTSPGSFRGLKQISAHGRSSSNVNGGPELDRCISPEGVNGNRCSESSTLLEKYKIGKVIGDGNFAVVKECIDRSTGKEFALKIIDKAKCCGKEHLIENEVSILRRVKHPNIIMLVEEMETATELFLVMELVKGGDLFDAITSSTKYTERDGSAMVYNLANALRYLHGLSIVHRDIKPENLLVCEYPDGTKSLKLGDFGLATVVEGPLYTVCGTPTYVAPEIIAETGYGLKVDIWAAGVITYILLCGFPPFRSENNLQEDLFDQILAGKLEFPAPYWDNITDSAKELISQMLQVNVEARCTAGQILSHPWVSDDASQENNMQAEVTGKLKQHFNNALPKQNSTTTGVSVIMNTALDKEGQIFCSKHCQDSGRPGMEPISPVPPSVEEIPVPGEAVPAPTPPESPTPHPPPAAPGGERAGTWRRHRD

PI4KB (human) = PI4KB (human) (UniProt Q9UBF8)
MAP3K15 (human) = MAP3K15 (human) (UniProt Q6ZN16)
Chain of MAP3K15 (human) (Q6ZN16 whole entry, looked up): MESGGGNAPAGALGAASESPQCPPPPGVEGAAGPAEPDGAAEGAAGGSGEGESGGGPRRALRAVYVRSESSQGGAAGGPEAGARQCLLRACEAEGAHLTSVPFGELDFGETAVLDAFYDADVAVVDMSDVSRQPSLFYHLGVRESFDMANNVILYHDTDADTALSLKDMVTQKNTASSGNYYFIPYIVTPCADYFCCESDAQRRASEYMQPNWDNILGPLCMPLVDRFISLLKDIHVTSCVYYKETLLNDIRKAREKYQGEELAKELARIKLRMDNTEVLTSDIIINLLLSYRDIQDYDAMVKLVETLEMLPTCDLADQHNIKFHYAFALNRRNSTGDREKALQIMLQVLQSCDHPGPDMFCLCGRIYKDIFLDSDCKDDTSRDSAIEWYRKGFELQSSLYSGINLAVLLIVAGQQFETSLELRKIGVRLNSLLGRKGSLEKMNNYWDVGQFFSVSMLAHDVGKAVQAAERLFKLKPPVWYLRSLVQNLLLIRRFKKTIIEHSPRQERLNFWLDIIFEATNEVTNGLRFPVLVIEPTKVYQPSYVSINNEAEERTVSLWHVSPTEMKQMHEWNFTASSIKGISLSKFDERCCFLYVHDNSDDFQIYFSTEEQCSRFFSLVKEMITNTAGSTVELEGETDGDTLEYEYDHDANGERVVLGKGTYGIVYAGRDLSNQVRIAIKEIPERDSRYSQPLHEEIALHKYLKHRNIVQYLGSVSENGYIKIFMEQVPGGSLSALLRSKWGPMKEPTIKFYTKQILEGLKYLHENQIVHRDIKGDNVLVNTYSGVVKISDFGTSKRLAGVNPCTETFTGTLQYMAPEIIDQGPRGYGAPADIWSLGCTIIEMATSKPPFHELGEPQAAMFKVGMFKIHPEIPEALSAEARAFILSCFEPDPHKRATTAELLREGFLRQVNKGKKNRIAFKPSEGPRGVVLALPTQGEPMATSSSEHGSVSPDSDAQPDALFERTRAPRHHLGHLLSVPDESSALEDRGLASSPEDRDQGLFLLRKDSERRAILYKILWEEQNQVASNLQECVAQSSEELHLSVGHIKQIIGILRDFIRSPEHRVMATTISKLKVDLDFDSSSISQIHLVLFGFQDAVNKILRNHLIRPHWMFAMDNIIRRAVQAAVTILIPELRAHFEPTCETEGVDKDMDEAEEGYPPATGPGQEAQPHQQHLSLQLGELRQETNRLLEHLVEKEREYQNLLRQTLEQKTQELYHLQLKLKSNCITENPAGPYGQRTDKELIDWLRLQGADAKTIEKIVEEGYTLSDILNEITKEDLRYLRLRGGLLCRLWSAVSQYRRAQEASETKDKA

BRAF (human) = BRAF (human) (UniProt P15056)
[5] = test system: BRAF (human), P15056 [V600E]

Chain of HIPK4 (human) (Q8NE63 whole entry, looked up): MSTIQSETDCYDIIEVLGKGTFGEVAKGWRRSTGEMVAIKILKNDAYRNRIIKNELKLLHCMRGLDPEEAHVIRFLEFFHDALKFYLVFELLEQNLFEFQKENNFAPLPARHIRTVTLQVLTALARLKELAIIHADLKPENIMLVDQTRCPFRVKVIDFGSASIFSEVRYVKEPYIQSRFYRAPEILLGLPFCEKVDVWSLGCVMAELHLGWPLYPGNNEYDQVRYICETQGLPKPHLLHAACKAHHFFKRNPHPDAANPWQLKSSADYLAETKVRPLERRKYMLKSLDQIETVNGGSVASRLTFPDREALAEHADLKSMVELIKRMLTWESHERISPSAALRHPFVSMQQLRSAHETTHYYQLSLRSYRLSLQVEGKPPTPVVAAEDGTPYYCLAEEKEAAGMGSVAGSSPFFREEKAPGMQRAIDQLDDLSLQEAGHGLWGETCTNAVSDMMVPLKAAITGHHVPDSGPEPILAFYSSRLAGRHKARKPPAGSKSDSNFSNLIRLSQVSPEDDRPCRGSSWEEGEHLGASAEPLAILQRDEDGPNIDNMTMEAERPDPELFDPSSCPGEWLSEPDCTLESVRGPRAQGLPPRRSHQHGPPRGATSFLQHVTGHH

| kinase still bound, per cent of control [1] | kinase still bound, per cent of control (BRAF (human)) | kinase still bound, per cent of control [5] | Structure (SMILES) | kinase still bound, per cent of control [2] | kinase still bound, per cent of control [3] | kinase still bound, per cent of control (HIPK4 (human)) | kinase still bound, per cent of control (SBK1 (human)) | kinase still bound, per cent of control (YSK4 (human)) | kinase still bound, per cent of control (VRK2 (human)) | kinase still bound, per cent of control [4] | kinase still bound, per cent of control (CDKL3 (human)) | kinase still bound, per cent of control (MAK (human)) | kinase still bound, per cent of control (CSNK1A1 (human)) | kinase still bound, per cent of control (DCLK2 (human)) | kinase still bound, per cent of control (PI4KB (human)) | kinase still bound, per cent of control (MAP3K15 (human)) |
| --- | --- | --- | --- | --- | --- | --- | --- | --- | --- | --- | --- | --- | --- | --- | --- | --- |
| 0.7% | – | – | CCN1CCN(Cc2ccc(NC(=O)c3ccc(C)c(Oc4ccnc5[nH]ccc45)c3)cc2C(F)(F)F)CC1 | – | – | – | – | – | – | – | – | – | – | – | – | – |
| – | – | – | CCOc1cc(N2CCC(N3CCCCC3)CC2)ccc1Nc1nc(Nc2ccccc2S(=O)(=O)C(C)C)c2cn[nH]c2n1 | 100% | 100% | 44% | 57% | 100% | 68% | 100% | 100% | 100% | 55% | 19% | 58% | 77% |
| – | 40% | 40% | COc1cc(N2CCC(N3CCN(C)CC3)CC2)ccc1Nc1ncc(Cl)c(Nc2ccccc2S(=O)(=O)C(C)C)n1 | – | – | – | – | – | – | – | – | – | – | – | – | – |
| – | – | – | CCN1CCN(Cc2ccc(NC(=O)c3ccc(C)c(/C=C/c4cnc(Nc5cc(N6CCNCC6)nc(C)n5)cn4)c3)cc2C(F)(F)F)CC1 | 8.6% | 97% | 15% | 82% | 0% | 62% | 100% | 0.55% | 49% | 14% | 100% | 63% | 100% |
